ChEMBL document CHEMBL4196200 (J Med Chem, 2018)
Residue numbers refer to the chain shown, from its start. pEC50, pIC50, pKi: −log10 of the molar value. In brackets after ≈: the same amount, converted by molar mass. One block for each molecule: values may come before it.

Columns and labels:
[1] = target: T1, Oxytocin receptor (Homo sapiens) (UniProt P30559); assay: Antagonist activity at human OTR expressed in HEK cells assessed as inhibition of OT-induced intracellular calcium flux at 1 uM incubated for 45 mins by Indo1-AM dye based fluorescence assay relative to OT; assay type: functional, cell-based
T1 sequence (whole entry): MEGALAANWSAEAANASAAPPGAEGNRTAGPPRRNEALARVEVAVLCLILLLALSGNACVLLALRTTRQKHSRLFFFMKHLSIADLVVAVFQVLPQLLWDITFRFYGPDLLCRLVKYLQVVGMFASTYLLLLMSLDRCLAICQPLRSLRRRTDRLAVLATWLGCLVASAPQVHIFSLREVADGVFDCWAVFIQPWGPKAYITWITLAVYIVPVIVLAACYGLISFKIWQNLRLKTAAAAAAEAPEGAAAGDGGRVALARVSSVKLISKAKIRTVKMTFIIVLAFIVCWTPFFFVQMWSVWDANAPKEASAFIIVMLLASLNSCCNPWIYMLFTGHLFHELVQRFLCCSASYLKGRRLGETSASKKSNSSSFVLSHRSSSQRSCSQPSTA

Vasopressin V2 receptor [2] = target: T2, Vasopressin V2 receptor (Homo sapiens, UniProt P30518); assay: Binding affinity to V2 receptor (unknown origin)
[3] = target: T1, Oxytocin receptor (Homo sapiens); assay: Agonist activity at human OTR receptor expressed in HEK293FT cells assessed as stimulation of calcium release by Aequorin based assay relative to OT; assay type: functional, cell-based
Vasopressin V2 receptor [4] = target: T2, Vasopressin V2 receptor; assay: Displacement of DY647 from SNAP-tagged V2 receptor (unknown origin) expressed in HEK293 cells by TR-FRET assay; assay type: cell-based
[5] = target: T1, Oxytocin receptor (Homo sapiens); assay: Agonist activity at recombinant human OTR expressed in CHO-DUKX-A2 cells assessed as stimulation of intracellular calcium concentration by calcium 3 dye based FLIPR assay relative to OT; assay type: functional, cell-based
Vasopressin V1b receptor [6] = target: T3, Vasopressin V1b receptor (Homo sapiens, UniProt P47901); assay: Binding affinity to V1B receptor (unknown origin)
T3 sequence (P47901 whole entry): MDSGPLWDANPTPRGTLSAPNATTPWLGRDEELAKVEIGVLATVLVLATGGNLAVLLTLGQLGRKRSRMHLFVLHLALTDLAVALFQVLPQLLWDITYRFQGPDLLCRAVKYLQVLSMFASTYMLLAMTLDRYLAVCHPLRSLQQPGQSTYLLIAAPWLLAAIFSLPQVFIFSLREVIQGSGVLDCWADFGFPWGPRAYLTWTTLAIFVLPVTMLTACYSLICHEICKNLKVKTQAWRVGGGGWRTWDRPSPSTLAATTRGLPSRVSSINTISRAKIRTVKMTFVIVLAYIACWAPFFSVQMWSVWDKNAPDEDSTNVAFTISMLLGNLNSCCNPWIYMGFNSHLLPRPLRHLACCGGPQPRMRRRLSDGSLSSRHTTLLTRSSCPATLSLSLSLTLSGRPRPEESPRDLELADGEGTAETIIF

[7] = target: T1, Oxytocin receptor (Homo sapiens); assay: Agonist activity at human OTR expressed in HEK cells assessed as increase in intracellular calcium flux incubated for 45 mins by Indo1-AM dye based fluorescence assay relative to OT; assay type: functional, cell-based
[8] = Thermodynamic solubility in pH 7.4 buffer; assay type: physicochemical; settings: read-out: Therm_solubility
Vasopressin V2 receptor [9] = target: T2, Vasopressin V2 receptor; assay: Agonist activity at human V2 receptor expressed in HEK293FT cells assessed as stimulation of calcium release by Aequorin based assay; assay type: functional, cell-based
[10] = target: T1, Oxytocin receptor (Homo sapiens); assay: Agonist activity at human OTR receptor expressed in HEK293FT cells incubated for 30 mins by beta-arrestin recruitment assay relative to OT; assay type: functional, cell-based
Oxytocin receptor [11] = target: T4, Oxytocin receptor (Mus musculus, UniProt P97926); assay: Agonist activity at mouse OTR receptor expressed in HEK293FT cells assessed as stimulation of calcium release by Aequorin based assay; assay type: functional, cell-based
T4 sequence (P97926 whole entry): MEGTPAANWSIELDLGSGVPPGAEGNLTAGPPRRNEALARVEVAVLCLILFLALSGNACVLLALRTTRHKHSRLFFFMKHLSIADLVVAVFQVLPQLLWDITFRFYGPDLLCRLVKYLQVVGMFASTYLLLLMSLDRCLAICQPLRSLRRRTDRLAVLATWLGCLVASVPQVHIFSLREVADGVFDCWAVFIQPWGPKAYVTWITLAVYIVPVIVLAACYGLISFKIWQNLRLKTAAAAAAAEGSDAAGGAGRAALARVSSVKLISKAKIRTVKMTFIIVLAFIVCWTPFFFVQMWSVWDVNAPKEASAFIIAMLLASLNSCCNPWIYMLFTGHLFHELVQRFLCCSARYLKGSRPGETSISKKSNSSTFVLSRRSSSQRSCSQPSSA

[12] = target: T5, Oxytocin receptor (Mus musculus) (UniProt P97926); assay: Agonist activity at mouse OTR receptor expressed in HEK293FT cells assessed as stimulation of calcium release by Aequorin based assay relative to OT; assay type: functional, cell-based
T5 sequence (whole entry): T4 sequence (P97926 whole entry)

Oxytocin receptor [13] = target: T6, Oxytocin receptor (Homo sapiens, UniProt P30559); assay: Antagonist activity at human OTR receptor expressed in HEK293FT cells assessed as inhibition of LIT-001-induced response incubated for 30 mins by beta-arrestin recruitment assay; assay type: functional, cell-based
T6 sequence (P30559 whole entry): T1 sequence (whole entry)

Vasopressin V2 receptor [14] = target: T2, Vasopressin V2 receptor; assay: Antagonist activity at human V2 receptor expressed in HEK293FT cells assessed as inhibition of AVP-induced calcium release by Aequorin based assay; assay type: functional, cell-based
Vasopressin V2 receptor [15] = target: T2, Vasopressin V2 receptor; assay: Antagonist activity at human V2 receptor expressed in HEK293FT cells assessed as inhibition of […] response incubated for 30 mins by beta-arrestin recruitment assay; assay type: functional, cell-based
Oxytocin receptor [16] = target: T6, Oxytocin receptor; assay: Antagonist activity at human OTR receptor expressed in HEK293FT cells assessed as inhibition of LIT-001-induced calcium release by Aequorin based assay; assay type: functional, cell-based
Vasopressin V1b receptor [17] = target: T7, Vasopressin V1b receptor (Rattus norvegicus, UniProt P48974); assay: Displacement of [3H]AVP from V1B receptor in Wistar rat pituitary membranes incubated for 60 mins by microplate scintillation counting method; assay type: cell membranes
T7 sequence (P48974 whole entry): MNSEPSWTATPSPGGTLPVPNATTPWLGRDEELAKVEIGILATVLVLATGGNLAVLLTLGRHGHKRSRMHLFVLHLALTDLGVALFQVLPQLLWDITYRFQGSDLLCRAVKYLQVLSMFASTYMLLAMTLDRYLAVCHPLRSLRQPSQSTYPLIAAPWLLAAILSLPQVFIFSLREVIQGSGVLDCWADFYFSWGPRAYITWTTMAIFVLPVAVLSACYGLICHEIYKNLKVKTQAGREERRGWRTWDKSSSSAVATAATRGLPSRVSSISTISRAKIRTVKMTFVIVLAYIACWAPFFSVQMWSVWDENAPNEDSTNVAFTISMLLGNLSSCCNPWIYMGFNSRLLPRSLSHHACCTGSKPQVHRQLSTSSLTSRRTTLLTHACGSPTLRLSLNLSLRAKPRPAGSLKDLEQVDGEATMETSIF

Vasopressin V1a receptor [18] = target: T8, Vasopressin V1a receptor (Homo sapiens, UniProt P37288); assay: Antagonist activity at V1A receptor (unknown origin) by cAMP accumulation assay; assay type: functional
Target sequence in this assay (P37288 whole entry): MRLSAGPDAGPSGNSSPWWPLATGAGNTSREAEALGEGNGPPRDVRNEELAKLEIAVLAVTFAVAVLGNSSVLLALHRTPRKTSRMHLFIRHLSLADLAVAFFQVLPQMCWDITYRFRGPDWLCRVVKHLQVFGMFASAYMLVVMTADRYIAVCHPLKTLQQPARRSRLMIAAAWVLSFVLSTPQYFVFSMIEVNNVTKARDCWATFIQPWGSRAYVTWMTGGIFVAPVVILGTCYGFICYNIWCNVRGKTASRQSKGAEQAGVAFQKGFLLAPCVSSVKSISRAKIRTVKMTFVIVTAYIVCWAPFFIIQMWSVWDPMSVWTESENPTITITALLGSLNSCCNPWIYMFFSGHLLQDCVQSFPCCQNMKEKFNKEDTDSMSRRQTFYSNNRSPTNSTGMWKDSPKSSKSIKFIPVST

Vasopressin V1a receptor [19] = target: T8, Vasopressin V1a receptor; assay: Antagonist activity at human V1A receptor expressed in CHO cells assessed as inhibition of AVP-induced myo-inositol 1-phosphate accumulation at 1 uM by IP-One assay relative to AVP; assay type: functional, cell-based
Target sequence in this assay (P37288 whole entry, looked up): as the sequence (P37288 whole entry) above

Homo sapiens [20] = species on record: Homo sapiens; assay: Selectivity for human V1a receptor over human V2 receptor
Vasopressin V1a receptor [21] = target: T8, Vasopressin V1a receptor; assay: Agonist activity at human V1A receptor expressed in CHO cells assessed as increase in myo-inositol 1-phosphate accumulation at 1 uM by IP-One assay relative to AVP; assay type: functional, cell-based
Target sequence in this assay (P37288 whole entry, looked up): as the sequence (P37288 whole entry) above

Vasopressin V2 receptor [22] = target: T2, Vasopressin V2 receptor; assay: Agonist activity at V2 receptor (unknown origin) by cAMP accumulation assay; assay type: functional
Vasopressin V1a receptor [23] = target: T8, Vasopressin V1a receptor; assay: Binding affinity to V1A receptor (unknown origin)
Target sequence in this assay (P37288 whole entry): as above

Homo sapiens [24] = species on record: Homo sapiens; assay: Selectivity for human OTR receptor over human V2 receptor
Oxytocin receptor [25] = target: T9, Oxytocin receptor (Rattus norvegicus, UniProt P70536); assay: Antagonist activity at OXR receptor in rat uterus; assay type: functional
T9 sequence (P70536 whole entry): T4 sequence (P97926 whole entry) with I11V, A23E, L27R, R33Q, A159G, V169A, S245N, L344F, I361V

Oxytocin receptor [26] = target: T6, Oxytocin receptor; assay: Binding affinity to OTR receptor (unknown origin)
Vasopressin V1a receptor [27] = target: T8, Vasopressin V1a receptor; assay: Displacement of [3H]-AVP from human V1A receptor expressed in human HeLa cell membranes incubated for 2 hrs by scintillation counting method
Target sequence in this assay (P37288 whole entry): as above

Vasopressin V2 receptor [28] = target: T2, Vasopressin V2 receptor; assay: Displacement of [3H]-AVP from human V2 receptor expressed in human HeLa cell membranes incubated for 2 hrs by scintillation counting method
Vasopressin V1b receptor [29] = target: T3, Vasopressin V1b receptor; assay: Displacement of [3H]-AVP from human V1B receptor expressed in human HeLa cell membranes incubated for 2 hrs by scintillation counting method
Vasopressin V2 receptor [30] = target: T2, Vasopressin V2 receptor; assay: Agonist activity at human V2 receptor expressed in human HeLa cells assessed as stimulation of cAMP accumulation by radioimmunoassay; assay type: functional, cell-based

T2 sequence (P30518 whole entry): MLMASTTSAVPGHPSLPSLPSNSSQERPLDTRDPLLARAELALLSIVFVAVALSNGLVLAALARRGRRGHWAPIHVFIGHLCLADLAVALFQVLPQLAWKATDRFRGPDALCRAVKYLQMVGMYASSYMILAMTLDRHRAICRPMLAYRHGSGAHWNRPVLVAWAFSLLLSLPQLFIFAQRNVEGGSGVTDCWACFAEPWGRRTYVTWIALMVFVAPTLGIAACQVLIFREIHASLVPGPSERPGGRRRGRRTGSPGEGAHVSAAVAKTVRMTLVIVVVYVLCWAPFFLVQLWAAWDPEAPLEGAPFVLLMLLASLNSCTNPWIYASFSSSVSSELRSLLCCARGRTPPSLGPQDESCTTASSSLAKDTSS

SMILES: Cc1cc(C(=O)N2Cc3cnn(C)c3Nc3ccccc32)ccc1CNC(=O)N1CCN(Cc2cc(O)cc(O)c2)CC1
inhibition [1]: 5 to 10% | pKi (Vasopressin V2 receptor [2]): 6.00 to 7.23 | Emax [3]: 70% | pKi (Vasopressin V2 receptor [4]): < 6.00 | Emax [5]: 87.1% | pKi (Vasopressin V1b receptor [6]): 5.24 to 6.00 | Emax [7]: 40% | solubility thermodynamic [8]: 5 mM (≈ 2910 µg/mL) | pEC50 (Vasopressin V2 receptor [9]): 5.64 | Emax [10]: 84% | pEC50 (Oxytocin receptor [11]): 7.11 | Emax [12]: 86%

SMILES: Cc1nc2c([nH]1)-c1ccccc1N(C(=O)c1ccc(NC(=O)c3ccccc3-c3ccccc3)cc1)CC2 [CONIVAPTAN]
pKi (Vasopressin V1b receptor [17]): < 5.00

SMILES: Cc1ccn(-c2ccc(C(=O)N3Cc4cccn4Cc4ccccc43)c(Cl)c2)n1
pKi (Vasopressin V2 receptor [2]): 7.40 | pIC50 (Vasopressin V1a receptor [18]): 5.78 | inhibition (Vasopressin V1a receptor [19]): 33% | Selectivity ratio (Homo sapiens [20]): 6.9 | pKi (Vasopressin V1b receptor [6]): < 6.00 | Emax (Vasopressin V1a receptor [21]): < 10% | pEC50 (Vasopressin V2 receptor [22]): 9.15 | pKi (Vasopressin V1a receptor [23]): 6.33 | Selectivity ratio (Homo sapiens [24]): 4 | pIC50 (Oxytocin receptor [25]): 7.26 | pKi (Oxytocin receptor [26]): 6.90

Other lines, results leading:

pIC50 (Oxytocin receptor [13]): 7.20 | pIC50 (Vasopressin V2 receptor [14]): 5.82 | pIC50 (Vasopressin V2 receptor [15]): 5.58 | pIC50 (Oxytocin receptor [16]): 6.22
SMILES: COCc1nnc(N2CC(Oc3ccc(F)cc3Cl)C2)n1-c1ccc(OC)nc1

pKi (Vasopressin V1a receptor [27]): 6.09 | pKi (Vasopressin V2 receptor [28]): 7.04 | pIC50 (Vasopressin V1b receptor [29]): < 4.00 | pEC50 (Vasopressin V2 receptor [30]): 6.72
SMILES: CC(C)NC(=O)C[C@H]1CCCN(C(=O)c2ccc(N3CCCC3)cc2Cl)c2ccccc21
